According to US7342026B2, “Substituted quinolines for the treatment of protozoa and retrovirus co-infections” (priority 2001, dated 2008):
Converted amounts (≈) assume the structure as drawn. Like-named read-outs stand apart in the source and are kept apart here. Marks after values point to notes of the source that are not given here.

Assays:
[1] = system: amastigotes of Leishmania amazonensis; test: Amastigotes of Leishmania amazonensis in infected macrophages (leishmanicidal activity); assay type: cell-based; conditions: for L. amazonensis IC100: 100% inhibitory concentration, intracellular amastigotes in BALB/c macrophages, 30 hours after addition; for activity on Leishmania amazonensis (in words): comment on Table II
Protocol: The strain of Leishmania amazonensis is maintained by successive passages in “nude” mice (nu/nu). The amastigotes are isolated from the lesions developed on the footpads, and purified according to the method described by Antoine et al. (Parasitology, 1989, 99: 1).
The leishmanicidal activity of the quinolines is determined 30 hours after addition of the solutions of substituted quinolines. It is based on a more or less large, or even complete, decrease, firstly, in the size of the parasitophorous vacuoles and, secondly, in the number of live intracellular amastigotes.

macrophages = test: Cytotoxicity on macrophages; assay type: cell-based, BALB/c mice
Protocol: The macrophages, which will be used as host cells for the leishmania, are obtained after multiplication and differentiation of medullary precursors from BALB/c mice. This culture is prepared in the presence of supernatant from a conditioned line of fibroblasts L-929, and source of “Macrophage Colony Stimulating Factor”. After culturing for 5 days on a hydrophobic support, the adherent macrophages are recovered and then distributed in flat-bottomed 96-well plates for cell culture, in a proportion of 4×10^4 macrophages per well. The macrophages are then infected with purified amastigotes (4 parasites per macrophage) and incubated at 34° C. for 24 hours to allow development of parasitophorous vacuoles and multiplication of parasites. Under these conditions, more than 95% of the macrophages are infected.
The solutions of the substituted quinolines to be tested are prepared in DMSO before being added, at various concentrations, to the infected macrophage cultures.
The results obtained with the substituted quinolines, assigned Nos. 1, 2, 4, 6 to 11, 13 to 20, 23 to 34, 37 and 38 in Table I, are given in Table II below as regards their activity on the amastigotes of Leishmania amazonensis, of Leishmania donovani and of Leishmania infantum, and also their cytotoxicity with respect to the macrophages.

[2] = system: Leishmania infantum (MHOM/FR/91/LEM2259V); test: Balb/c mice infected with visceral leishmaniasis (Leishmania infantum); assay type: in vivo; conditions: 10 days, quinolines oral 25 mg/kg/day, Glucantime subcutaneous 100 mg/kg/day; for Number of parasites in the liver per gram / Number of parasites in the spleen per gram: n=8; for % reduction in the number of parasites in the liver / % reduction in the number of parasites in the spleen: versus without treatment
Protocol: b) Tests Carried on Laboratory Animals Infected with Visceral Leishmaniasis (Leishmania infantum): 1/Laboratory Animals and Parasites
The Balb/c mice were infected with Leishmania infantum parasites at the promastigote stage (reference: MHOM/FR/91/LEM2259V), a strain isolated from a patient carrying AIDS. This strain is maintained in Schneider's drosophila culture medium (Gibco, USA) supplemented with 20% of fetal calf serum. The infectious promastigotes are cultured for 7 days and then counted. Each mouse is then infected intravenously with 0.2 ml of culture medium containing 10^7 promastigotes.
Counting of amastigotes forms in the liver and spleen.
After the treatments have been stopped and the animals sacrificed, the viscera, liver and spleen are weighed and collected in a Petri dish. Each organ is mounted several times on a degreased glass slide which, fixed and stained by the May-Grünwald-Giemsa technique, makes it possible to determine the number of amastigote forms per 500 nucleated cells.
The results are expressed in Table VI.

[3] = system: circulating forms of Trypanosoma brucei (S427 strain); test: microbe, parasite or virus in culture; assay type: cell-based; conditions: for IC50: read-out: T. brucei IC50; for activity on Trypanosoma brucei (in words): comment on Table III
Protocol: d) Tests on the Circulating Forms of Trypanosoma brucei
The circulating forms of Trypanosoma brucei are cultured in MEM medium (minimum essential medium; GIBCO-BRL, No. 072-1100) to which Earle's salts have been added and supplemented with 1 mg/ml of glucose, 2.2 mg/ml of NaHCO3, 10 mM of Hepes, 2 mM of sodium pyruvate, 0.2 mM of 2-mercaptoethanol, 0.1 mM of hypoxanthine and 15% of inactivated horse serum.
The cultures are maintained at 37° C. in 24-well plates in a humid atmosphere (5% CO2-95% air) and the passages are carried out every 2 or 3 days at a density of 10^3 to 10^5 trypomastigotes per ml. The activity of the substituted quinolines is tested in triplicate in 96-well plates in which 10^3 parasites originating from an exponential growth phase are distributed per well, in the presence of the various solutions of substituted quinolines in a final volume of 200 μl. After culturing for 48 hours, the trypanocidal activity is assessed by counting, with a Neubauer cell, the number of live parasites per well.

[4] = system: amastigotes of Leishmania infantum (MHOM/MA(BE)67); test: Amastigotes of Leishmania infantum (MHOM/MA(BE)67) in peritoneal macrophages; assay type: cell-based; conditions: for IC50: Leishmania infantum, Peritoneal macrophage, in Mus musculus, 48 h, read-out: L. infantum (MHOM/MA (BE) 67) IC50; for activity on the MHOM/MA(BE)67 strain of Leishmania infantum (in words): comment on Table II
[5] = system: amastigotes of Trypanosoma cruzi (Tulahuen strain); test: Amastigotes of Trypanosoma cruzi in peritoneal macrophages; assay type: cell-based; conditions: for IC50: read-out: T. cruzi (amastigotes) IC50; for activity on Trypanosoma cruzi (in words): comment on Table III
Protocol: c) Tests on Amastigotes of Trypanosoma cruzi
Peritoneal macrophages from Balb/c mice are collected, washed in Dulbecco PBS and then distributed in 96-well plates in a proportion of 3×10^4 cells per 100 μl and per well, in RPMI-1640 medium supplemented with 10% FCS and antibiotics.
After 24 hours at 37° C., 10^5 trypomastigotes are added with serial 2-fold dilutions of the various substituted quinolines. The cultures are then incubated at 37° C. for 4 days in a humid atmosphere (5% CO2-95% air). After fixing, and then staining with Giemsa, the antiparasitic activity is assessed by counting the extracellular trypomastigotes and the intracellular amastigotes.

[6] = system: amastigotes of Leishmania infantum (IPZ229/1/89); test: microbe, parasite or virus in culture; assay type: cell-based; conditions: for IC50: Leishmania infantum, Peritoneal macrophage, in Mus musculus, 48 h, read-out: L. infantum (IPZ229/1/89) IC50
Source text: (§1) b) Tests on Amastigotes of Leishmania donovani and Leishmania infantum
(§2) The Leishmania donovani and Leishmania infantum strains are maintained by successive passages in golden hamsters. The amastigotes are isolated from the spleens of the infected hamsters and brought into contact with the purified macrophages.
(§3) Twenty-four hours after intraperitoneal injection of Balb/c mice with a 2% starch solution, the peritoneal macrophages of these mice are collected, washed in Dulbecco PBS and then distributed in Lab-tek® culture chambers, in a proportion of 4×10^4 cells per 100 μl per well in RPMI-1640 medium supplemented with 10% of FCS and antibiotics. After 24 hours at 37° C. in a humid atmosphere (5% CO2), the macrophages are brought into contact with purified amastigotes (3 parasites per macrophage) in a final volume of 200 μl for 4 hours. The medium is then removed in order to eliminate the extracellular parasites, and replaced with 100 μl of fresh medium.
(§4) Twenty-four hours after the beginning of infection, the solutions of substituted quinolines prepared as described in paragraph a) above are added and the leishmanicidal activity is determined after 48 hours by counting the number of parasites still alive in the fixed and Giemsa-stained cells.

[7] = system: amastigotes of Leishmania donovani (MHOM/ET/67/L82); test: microbe, parasite or virus in culture; assay type: cell-based; conditions: for IC50: Leishmania donovani, Peritoneal macrophage, in Mus musculus, 48 h, read-out: L. donovani IC50
Source text: as §1, §2, §3, §4

[8] = system: Leishmania amazonensis (IFLA/BR/67/PH8); conditions: 15 days, quinolines oral 25 mg/kg/day, Glucantime subcutaneous 100 mg/kg (28 mg Sbv/kg); for Mean of the number of parasites in the lesion per gram / Weight of lesions (mean ± standard deviation): n=8; for % reduction in the number of parasites in the lesion: versus untreated controls
Source text: a) Tests Carried Out on Laboratory Animals Infected with Cutaneous Leishmaniasis (Leishmania amazonensis):
The experimental animals are male or female approximately 6- to 8-week-old Balb/c mice weighing 18-24 g, subsequently reared for reproduction in the animal house of the Instituto de Investigaciones en Ciencias de la Salud (IICS), Asuncion, Paraguay. Golden hamsters (Mesocricetus auratus) are used to maintain these strains and as reservoirs for L. amazonensis parasites.
The Balb/c mice are infected with Leishmania amazonensis parasites, at the amastigote stage of the reference strain IFLA/BR/67/PH8, subcutaneously in the ventral pad of the right rear foot, the left foot remaining as a control. The amount of amastigotes inoculated is 2×10^6 amastigotes in 50 μl of phosphate buffer saline (PBS) for L. amazonensis.
The treatments begin once the infection is well established, mainly in general 5 to 6 weeks after inoculation of the L. amazonensis amastigotes. The reference medicinal product chosen is Glucantime® or meglumine antimoniate from Aventis (France).
The untreated control mice are given 50 μl of a solution of Tween 80 with PBS.
Measurement of the lesion: the diameters of the lesions on the infected foot and on the control foot are measured using a micrometer with 1/10 mm graduations, once a week for the duration of the experiment. The first measurements begin 48 hours after inoculation of the parasites. Calculating the difference in the two measurements gives the thickness of the lesion.
The 5 ml of puree obtained are centrifuged twice. The layer containing the amastigotes is subjected to counting of the number of parasites using a Neubauer cell. Five counts are performed on each amastigote layer. The number of amastigote forms is determined using the Stauber formula which takes into account the weight of the lesion: A/N×W×coefficient of the Neubauer cell • A=number of amastigotes, N=number of nuclei W=weight of the lesion
The results are expressed by the calculation of the arithmetic mean of the diameters of the lesions measured once a week and, at the end of the protocol, after sacrifice of the mice, of the weights of the lesions and of the number of amastigotes. A Student's test (t-test) is used for the statistical analysis of all the data. The comparison is made between “control” groups with a “treatment” group per pair. A value of P<0.05 is considered to be statistically significant.

[9] = Trypanosoma cruzi, TULAHUEN, Peritoneal macrophage, in Mus musculus, 96 h
[10] = Balb/c peritoneal macrophages, 4 days
[11] = circulating forms, culturing for 48 hours

Compound | L. amazonensis IC100 [1] | Cytotoxicity on macrophages (macrophages; macrophages from BALB/c mice) | IC50 [5, 10] | IC50 [3, 11] | also measured
C[Si](C)(C)C#Cc1ccc2ccccc2n1 [Example 1, 2-(2-quinolyl)trimethylsilylacetylene] | 0.7812 µg/mL | 6.25 µg/mL |  |  | 
OC/C=C/c1ccc2ccccc2n1 [Example 4, E-3-(2-quinolyl)prop-2-en-1-ol] | 25 µg/mL | 25 µg/mL |  |  | 
C#Cc1ccc2ccccc2n1 [Quinoline 1, 1-(2-quinolyl)acetylene] |  |  |  |  | Number of parasites in the liver per gram [2]: 1.8 × 10^7 c per gram; Number of parasites in the spleen per gram [2]: 2.2 × 10^6 b per gram; % reduction in the number of parasites in the liver [2]: −60.0%; % reduction in the number of parasites in the spleen [2]: −47.6%
C=Cc1ccc2ccccc2n1 [Quinoline 2, (2-quinolyl)ethylene] | 3.12 µg/mL | 6.25 µg/mL |  |  | IC50 ([3]; Trypanosoma brucei, 48 h): 13 µM; IC50 [4]: > 32 µM; IC50 [5, 9]: 12 µM; IC50 [6]: 1.3 µg/mL (≈ 8.38 µM); IC50 [7]: 1.2 to 2.8 µg/mL (≈ 7.73 to 18 µM)
Cc1ccc2nc(C=O)ccc2c1 [Quinoline 5] |  |  | > 32 µM |  | 
CC/C=C/c1ccc2ccccc2n1 [Quinoline 6, E-1-(2-quinolyl)butene] | 6.25 µg/mL | 25 µg/mL | > 32 µM | 17 µM | Mean of the number of parasites in the lesion per gram [8]: 6.9 × 10^6 per gram; Weight of lesions (mean ± standard deviation) [8]: 0.101 ± 0.100 g; % reduction in the number of parasites in the lesion [8]: −73%
OC/C=C/c1ccc2ccccc2n1 [Quinoline 10] |  |  | 4 µM | > 32 µM | L. amazonensis IC100 ([1]; listed as 10): 1.56 µg/mL; Cytotoxicity on macrophages (macrophages; macrophages from BALB/c mice, listed as 10): 6.25 µg/mL
C/C=C/c1ccc2cccc(O)c2n1 [Quinoline 11] | 50 µg/mL | 50 µg/mL | 19 µM | > 32 µM | 
CC(=O)Cc1ccc2ccccc2n1 [Quinoline 13] | 25 µg/mL | 25 µg/mL | > 32 µM | 10 µM | 
CC(O)Cc1ccc2ccccc2n1 (stereo not drawn) [Quinoline 15] |  |  | > 32 µM | 16 µM | 
CCC(O)c1ccc2ccccc2n1 (stereo not drawn) [Quinoline 17] |  |  | > 32 µM | 3 µM | 
O=C(O)/C=C/c1ccc2ccccc2n1 [Quinoline 19] | 12.5 µg/mL | 12.5 µg/mL |  |  | 
CC(O)Cc1ccc2cccc(O)c2n1 (stereo not drawn) [Quinoline 22] |  |  | 16 µM | 16 µM | 
COC(=O)/C=C/c1ccc2ccccc2n1 [Quinoline 23, methyl E-3-(2-quinolyl)-2-propenoate] | 12.5 µg/mL |  |  |  | IC50 ([3]; Trypanosoma brucei, 48 h): 16 µM; activity on Trypanosoma brucei (in words) [3]: less advantageous; IC50 [4]: 26 µM; activity on the MHOM/MA(BE)67 strain of Leishmania infantum (in words) [4]: less advantageous; Number of parasites in the liver per gram [2]: 1.8 × 10^7 d per gram; Number of parasites in the spleen per gram [2]: 1.5 × 10^6 c, f per gram; % reduction in the number of parasites in the liver [2]: −60.0%; % reduction in the number of parasites in the spleen [2]: −64.3%; IC50 [5, 9]: 15 µM; activity on Trypanosoma cruzi (in words) [5]: less advantageous; activity on Leishmania amazonensis (in words) [1]: marked activity; Mean of the number of parasites in the lesion per gram [8]: 3.1 × 10^6 per gram; Weight of lesions (mean ± standard deviation) [8]: 0.059 ± 0.010 g; % reduction in the number of parasites in the lesion [8]: −88%**; Cytotoxicity on macrophages (macrophages; BALB/c, mouse): 50 µg/mL; IC50 [6]: 0.4 to 2.2 µg/mL (≈ 1.88 to 10.3 µM); activity on the IPZ229/1/89 strain of Leishmania infantum (in words) ([6]; comment on Table II): marked activity; IC50 [7]: 3.3 to 30 µg/mL (≈ 15.5 to 141 µM); activity on Leishmania donovani (in words) ([7]; comment on Table II): marked activity
Cl/C=C/C#Cc1ccc2ccccc2n1 [Quinoline 24] | 10 to 25 µg/mL |  |  |  | 
CCCCC/C=C/c1ccc2ccccc2n1 [Quinoline 25] | 12.5 µg/mL | 25 µg/mL | 11 µM | 4 µM | activity on Trypanosoma brucei (in words) [3]: advantageous activity; activity on the MHOM/MA(BE)67 strain of Leishmania infantum (in words) [4]: less active; activity on Trypanosoma cruzi (in words) [5]: advantageous activity; activity on Leishmania amazonensis (in words) [1]: advantageous activity
COC(=O)/C=C/c1ccc2cc(C)ccc2n1 [Quinoline 27] | 50 µg/mL |  | 25 µM |  | 
BrC#Cc1ccc2ccccc2n1 [Quinoline 28] | 12.5 µg/mL | 12.5 µg/mL | > 32 µM | 5 µM | 
Br/C=C/c1ccc2ccccc2n1 [Quinoline 29, E-1-bromo-2-(2-quinolyl)-ethene] | 0.7812 µg/mL | 3.12 µg/mL |  |  | IC50 ([3]; Trypanosoma brucei, 48 h): 1 µM; IC50 [4]: 2 µM; IC50 [5, 9]: < 0.5 µM
COC(=O)/C=C/C=C/c1ccc2ccccc2n1 [Quinoline 30] | 12.5 µg/mL | 25 µg/mL | 26 µM |  | 
FC(Br)=Cc1ccc2ccccc2n1 [Quinoline 31] | 25 µg/mL | 25 µg/mL |  |  | 
CCCCCCCCC#Cc1ccc2ccccc2n1 [Quinoline 32] | 12.5 µg/mL | 12.5 µg/mL |  |  | 
c1ccc2nc(CCc3ccc4c(c3)OCO4)ccc2c1 [Quinoline 34] | 50 µg/mL | 25 µg/mL | 15 µM | 13 µM | 
C(=C\c1ccc2ccccc2n1)/c1ccc2ccccc2n1 [Quinoline 35] |  |  | > 32 µM | 24 µM | 
BrC(Br)=Cc1ccc2ccccc2n1 [Quinoline 36] |  |  | 21 µM | 4 µM | 
meglumine antimoniate [Glucantime, reference compound] |  |  |  |  | Number of parasites in the liver per gram [2]: 1.6 × 10^7 a per gram; Number of parasites in the spleen per gram [2]: 4.4 × 10^6 per gram; % reduction in the number of parasites in the liver [2]: −65.3%; % reduction in the number of parasites in the spleen [2]: +6.0%; Mean of the number of parasites in the lesion per gram [8]: 7.2 × 10^5 per gram; Weight of lesions (mean ± standard deviation) [8]: 0.012 ± 0.010 g; % reduction in the number of parasites in the lesion [8]: −97%
